Measured values as given in ChEMBL document CHEMBL2417531, “The discovery of inhibitors of Fas-mediated cell death pathway using the combined computational method” (Bioorg Med Chem Lett, 2013).

Target: T1, Tumor necrosis factor receptor superfamily member 6 (Rattus norvegicus) (UniProt Q63199)
T1 sequence (whole entry): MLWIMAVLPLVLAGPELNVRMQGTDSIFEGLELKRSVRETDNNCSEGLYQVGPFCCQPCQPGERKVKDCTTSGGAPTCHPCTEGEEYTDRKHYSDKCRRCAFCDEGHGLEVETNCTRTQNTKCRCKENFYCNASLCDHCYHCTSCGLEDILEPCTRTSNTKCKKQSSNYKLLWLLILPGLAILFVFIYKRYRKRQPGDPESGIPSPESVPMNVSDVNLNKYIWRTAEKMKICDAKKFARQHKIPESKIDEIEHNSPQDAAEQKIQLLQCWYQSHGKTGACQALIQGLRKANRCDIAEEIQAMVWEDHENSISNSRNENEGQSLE
Test: Inhibition of Fas-mediated cell death in oxygen and glucose deprived rat H9c2 cells at 10 uM treated 30 mins before oxygen and glucose deprivation measured after 6 hrs by DAPI staining
Type: cell-based

Point of comparison: `O=C(CCSc1ccccn1)Nc1cc(Cl)ccc1C1=NCCO1`, inhibition 23.2%. Against it:
- O=C(O)c1cc(Cl)ccc1NC(=O)C(Sc1ccc(Br)cc1)c1ccccc1 (stereo not given) — higher, 27.4%
- COC(=O)c1cc(Br)cc(Br)c1NC(=O)C(Sc1ccc(Br)cc1)c1ccccc1 (stereo not given) — lower, 21.3%
- COC(=O)c1cc(OC)c(OC)cc1NC(=O)CCSc1ccccn1 — lower, 17.5%
- COC(=O)c1sccc1NC(=O)CCSc1ccc(Br)cc1 — lower, 16.9%
- COc1cc(C(=O)O)c(NC(=O)CCSc2ccccn2)c(OC)c1OC — higher, 28.6%
- COC(=O)c1cc(Br)cc(Br)c1NC(=O)CCSc1ccccn1 — lower, 11.4%
- COC(=O)c1sccc1NC(=O)CSc1ccccc1 — lower, 9.48%
- COC(=O)c1ccc(Cl)cc1NC(=O)CCSc1ccccn1 — lower, 12.8%
- COC(=O)c1c(NC(=O)CSc2ccc(Br)cc2)cnn1CCc1ccccc1 — lower, 5.41%
- COc1cc(NC(=O)CSc2ccc(Br)cc2)c(C2=NCCO2)cc1OC — lower, 11.9%
- O=C(CSc1ccc(Br)cc1)Nc1c(C(=O)O)oc2ccccc12 — lower, 8.47%
- COC(=O)c1ccsc1NC(=O)CSc1ccccc1 — lower, 8.38%
- COC(=O)c1ccsc1NC(=O)CSc1ccc(Br)cc1 — lower, 9%
- COC(=O)c1sc2ncccc2c1NC(=O)CCSc1ccccn1 — lower, 4.95%
- COC(=O)c1ccsc1NC(=O)CCSc1ccc(Br)cc1 — lower, 6.45%
- COC(=O)c1cc(OC)c(OC)c(OC)c1NC(=O)CCSc1ccccn1 — lower, 13.5%
- COC(=O)c1sccc1NC(=O)CSc1ccc(OC)cc1 — lower, 10.8%
- O=C(CSc1ccc(Br)cc1)Nc1ccccc1C(=O)O — higher, 30.9%
- COC(=O)c1sccc1NC(=O)COc1ccc(Br)cc1 — lower, 10.8%
- COC(=O)c1nn(CCc2ccccc2)cc1NC(=O)COc1ccc(Br)cc1 — lower, 2.97%
- COC(=O)c1oc2cccc(Cl)c2c1NC(=O)CSc1ccccn1 — lower, 7.33%
- COC(=O)c1ccc(Cl)cc1NC(=O)CSc1ccc(Br)cc1 — lower, 12%
- COC(=O)c1sc2ccccc2c1NC(=O)CSc1ccccc1 — lower, 7.94%
- COC(=O)c1sccc1NC(=O)CCSc1ccccc1 — lower, 5.24%
- COC(=O)c1sccc1NC(=O)CN(C)c1ccccc1 — lower, 7.57%
- COC(=O)c1sccc1NC(=O)CSc1ccc(Br)cc1 — lower, 4%
- COC(=O)c1sc2ccccc2c1NC(=O)CCSc1ccc(Br)cc1 — lower, 8.57%
- O=C(CSc1ccc(Br)cc1)Nc1c(Br)cc(Br)cc1C(=O)O — lower, 16.1%
- Cc1csc(C(=O)O)c1NC(=O)CSc1ccc(Br)cc1 — lower, 14.3%
- COC(=O)c1ccccc1NC(=O)CSc1ccccn1 — lower, 7.9%
- COC(=O)c1ccccc1NC(=O)CSc1ccccc1 — lower, 6.05%
- COC(=O)c1c(NC(=O)CSc2ccc([N+](=O)[O-])cc2)cnn1CCc1ccccc1 — lower, 4.5%
- COC(=O)c1c(NC(=O)CSc2cccc(OC)c2)cnn1CCc1ccccc1 — lower, 4.17%
- COC(=O)c1oc2cccc(Cl)c2c1NC(=O)CSc1ccc(Br)cc1 — lower, 14.7%
- CN(C)C(=O)c1sccc1NC(=O)CSc1ccc(Br)cc1 — lower, 10.4%
- COC(=O)c1c(NC(=O)CSc2ccccc2N)cnn1CCc1ccccc1 — lower, 5.4%
- COC(=O)c1sccc1NC(=O)CSc1cccc(OC)c1 — lower, 6.18%
- COC(=O)c1oc2ccccc2c1NC(=O)CSc1ccc(Br)cc1 — lower, 7.57%
- COC(=O)c1nn(CCc2ccccc2)cc1NC(=O)CCc1ccccc1 — lower, 3.99%
